Test system: HEK293T cells carrying the ATF4 luciferase reporter
Assay: ATF4-Luc assay (in vitro model of vanishing white matter disease)
Assay type: cell-based
Conditions: Homo sapiens, HEK-293T, 1 μg/mL tunicamycin, 7 hours
Protocol: In order to test exemplary compounds of the invention in a cellular context, a stable VWMD cell line was first constructed. The ATF4 reporter was prepared by fusing the human full-length ATF4 5′-UTR (NCBI Accession No. BCO22088.2) in front of the firefly luciferase (FLuc) coding sequence lacking the initiator methionine as described in Sidrauski et al (eLife 2013). The construct was used to produce recombinant retroviruses using standard methods and the resulting viral supernatant was used to transduce HEK293T cells, which were then subsequently selected with puromycin to generate a stable cell line.
HEK293T cells carrying the ATF4 luciferase reporter were plated on polylysine coated 384-well plates (Greiner Bio-one) at 30,000 cells per well. Cells were treated the next day with 1 μg/mL tunicamycin and 200 nM of a compound of Formula (I) for 7 hours. Luminescence was measured using One Glo (Promega) as specified by the manufacturer. Cells were maintained in DMEM with L-glutamine supplemented with 10% heat-inactivated FBS (Gibco) and Antibiotic-Antimycotic solution (Gibco).
Table 2 below summarizes the EC50 data obtained using the ATF4-Luc assay for exemplary compounds of the invention.

**Q.** Which EC50 does the source give for O=C(COc1ccc(Cl)c(F)c1)NC12CC(C(=O)Nc3ccc(C4CC4)cn3)(C1)C2 [Compound 306, 3-[2-(4-chloro-3-fluorophenoxy)acetamido]-N-(5-cyclopropylpyridin-2-yl)bicyclo[1.1.1]pentane-1-carboxamide] here?
**A.** The EC50 was under 250 nM.

**Q.** How did the EC50 turn out when O=C(COc1ccc(Cl)c(F)c1)NC12CC(C(=O)NCCc3c[nH]c4ccccc34)(C1)C2 [Compound 194, 3-[2-(4-chloro-3-fluorophenoxy)acetamido]-N-[2-(1H-indol-3-yl)ethyl]bicyclo[1.1.1]pentane-1-carboxamide] was run?
**A.** The EC50 was under 250 nM.

**Q.** For O=C(COc1ccc(Cl)c(F)c1)NC12CC(C(=O)Nc3ccccc3)(C1)C2 [Compound 285, 3-[2-(4-chloro-3-fluorophenoxy)acetamido]-N-phenylbicyclo[1.1.1]pentane-1-carboxamide], which EC50 is on record?
**A.** The EC50 was under 250 nM.

**Q.** How did the EC50 turn out when O=C(COc1ccc(Cl)c(F)c1)NC12CCC(C(=O)NCc3ccc(OC(F)F)cn3)(CC1)CC2 [Compound 265, 4-[2-(4-chloro-3-fluorophenoxy)acetamido]-N-{[5-(difluoromethoxy)pyridin-2-yl]methyl}bicyclo[2.2.2]octane-1-carboxamide] was run?
**A.** The EC50 was under 250 nM.

**Q.** How did the EC50 turn out when Cc1cnc(NC(=O)C23CC(NC(=O)COc4ccc(Cl)c(F)c4)(C2)C3)cn1 [Compound 304, 3-[2-(4-chloro-3-fluorophenoxy)acetamido]-N-(5-methylpyrazin-2-yl)bicyclo[1.1.1]pentane-1-carboxamide] was run?
**A.** Its EC50 is under 250 nM.

**Q.** How did the EC50 turn out when O=C(COc1ccc(Cl)c(F)c1)NC12CC(C(=O)NCCOc3ccc(Cl)c(F)c3)(C1)C2 [Compound 340, 3-[2-(4-chloro-3-fluorophenoxy)acetamido]-N-[2-(4-chloro-3-fluorophenoxy)ethyl]bicyclo[1.1.1]pentane-1-carboxamide] was run?
**A.** The EC50 was under 250 nM.

**Q.** With O=C(COc1ccc(Cl)c(F)c1)NC12CC(C(=O)Nc3ccc(OCC(F)(F)F)nc3)(C1)C2 [Compound 310, 3-[2-(4-chloro-3-fluorophenoxy)acetamido]-N-[6-(2,2,2-trifluoroethoxy)pyridin-3-yl]bicyclo[1.1.1]pentane-1-carboxamide] as the compound, how does the EC50 read?
**A.** The EC50 was under 250 nM.

**Q.** For O=C(COc1ccc(Cl)c(F)c1)NC12CC(C(=O)Nc3ccc(OC(F)F)nc3)(C1)C2 [Compound 282, 3-[2-(4-chloro-3-fluorophenoxy)acetamido]-N-[6-(difluoromethoxy)pyridin-3-yl]bicyclo[1.1.1]pentane-1-carboxamide], which EC50 is on record?
**A.** The EC50 was under 250 nM.

**Q.** How did the EC50 turn out when O=C(COc1ccc(Cl)c(Cl)c1)NC12CC(C(=O)Nc3cccnc3)(C1)C2 [Compound 295, 3-[2-(3,4-dichlorophenoxy)acetamido]-N-(pyridin-3-yl)bicyclo[1.1.1]pentane-1-carboxamide] was run?
**A.** The EC50 was under 250 nM.

**Q.** With O=C(COc1ccc(Cl)c(F)c1)NC12CCC(C(=O)NCc3ccc(C(F)(F)F)cc3)(CC1)[C@@H](O)C2 (single isomer, unassigned) [Compound 266] as the compound, how does the EC50 read?
**A.** Its EC50 is under 250 nM.

**Q.** O=C(COc1ccc(Cl)c(F)c1)NC12CCC(C(=O)NCc3ccc(C(F)(F)F)cc3)(CC1)C(O)C2 (stereo not drawn) [Compound 110, 4-[2-(4-chloro-3-fluorophenoxy)acetamido]-2-hydroxy-N-{[4-(trifluoromethyl)phenyl]methyl}bicyclo[2.2.2]octane-1-carboxamide] was tested. Which EC50 did it give?
**A.** Its EC50 is under 250 nM.

**Q.** Which EC50 does the source give for O=C(COc1ccc(F)c(F)c1)NC12CC(C(=O)Nc3ccc(OC(F)(F)F)cn3)(C1)C2 [Compound 308, 3-[2-(3,4-difluorophenoxy)acetamido]-N-[5-(trifluoromethoxy)pyridin-2-yl]bicyclo[1.1.1]pentane-1-carboxamide] here?
**A.** The EC50 was under 250 nM.

**Q.** O=C(COc1ccc(Cl)c(F)c1)NC12CCC(C(=O)Nc3ccc(OC(F)(F)F)cn3)(CC1)CC2 [Compound 279, 4-[2-(4-chloro-3-fluorophenoxy)acetamido]-N-[5-(trifluoromethoxy)pyridin-2-yl]bicyclo[2.2.2]octane-1-carboxamide] was tested. Which EC50 did it give?
**A.** The EC50 was under 250 nM.

**Q.** With O=C(COc1ccc(Cl)c(F)c1)NC12CCC(C(=O)Nc3ccc(C(F)(F)F)cc3)(CC1)OC2 [Compound 337, 4-[2-(4-chloro-3-fluorophenoxy)acetamido]-N-[4-(trifluoromethyl)phenyl]-2-oxabicyclo[2.2.2]octane-1-carboxamide] as the compound, how does the EC50 read?
**A.** Its EC50 is under 250 nM.

**Q.** For Cc1ccc(NC(=O)C23CC(NC(=O)COc4ccc(Cl)c(F)c4)(C2)C3)nc1 [Compound 299, 3-[2-(4-chloro-3-fluorophenoxy)acetamido]-N-(5-methylpyridin-2-yl)bicyclo[1.1.1]pentane-1-carboxamide], which EC50 is on record?
**A.** Its EC50 is under 250 nM.

**Q.** With O=C(COc1ccc(Cl)c(F)c1)NC12CCC(C(=O)NCc3ccc(Cl)cn3)(CC1)OC2 [Compound 342, 4-[2-(4-chloro-3-fluorophenoxy)acetamido]-N-[(5-chloropyridin-2-yl)methyl]-2-oxabicyclo[2.2.2]octane-1-carboxamide] as the compound, how does the EC50 read?
**A.** The EC50 was under 250 nM.

**Q.** For O=C(COc1ccc(C(F)(F)F)nc1)NC12CC(C(=O)Nc3ccc(OC(F)(F)F)cn3)(C1)C2 [Compound 297, N-[5-(trifluoromethoxy)pyridin-2-yl]-3-(2-{[6-(trifluoromethyl)pyridin-3-yl]oxy}acetamido)bicyclo[1.1.1]pentane-1-carboxamide], which EC50 is on record?
**A.** Its EC50 is under 250 nM.

**Q.** Which EC50 does the source give for NC(=O)CN(Cc1ccc(Cl)c(F)c1)C(=O)C12CCC(NC(=O)COc3ccc(Cl)c(F)c3)(CC1)CC2 [Compound 320, N-(2-amino-2-oxoethyl)-4-[2-(4-chloro-3-fluorophenoxy)acetamido]-N-[(4-chloro-3-fluorophenyl)methyl]bicyclo[2.2.2]octane-1-carboxamide] here?
**A.** The EC50 was 500 to 1000 nM.

**Q.** For O=C(COc1ccc(Cl)c(F)c1)NC12CC(C(=O)N(CCO)Cc3ccc(Cl)c(F)c3)(C1)C2 [Compound 343, 3-[2-(4-chloro-3-fluorophenoxy)acetamido]-N-[(4-chloro-3-fluorophenyl)methyl]-N-(2-hydroxyethyl)bicyclo[1.1.1]pentane-1-carboxamide], which EC50 is on record?
**A.** Its EC50 is 1000 to 2000 nM.

**Q.** How did the EC50 turn out when O=C(COc1ccc(Cl)c(F)c1)NC12CCC(C(=O)NCC(=O)c3ccc(Cl)c(F)c3)(CC1)[C@@H](O)C2 [Compound 326, (2S)-4-[2-(4-chloro-3-fluorophenoxy)acetamido]-N-[2-(4-chloro-3-fluorophenyl)-2-oxoethyl]-2-hydroxybicyclo[2.2.2]octane-1-carboxamide] was run?
**A.** The EC50 was under 250 nM.

**Q.** How did the EC50 turn out when O=C(COc1ccc(Cl)c(F)c1)NC12CCC(C(=O)NCc3ccc(C(F)(F)F)cc3)(CC1)C[C@H]2O (single isomer, unassigned) [Compound 269] was run?
**A.** Its EC50 is under 250 nM.

**Q.** With O=C(COc1ccc2c(c1)OC(F)(F)O2)NC12CCC(C(=O)Nc3ccc(OC(F)(F)F)cn3)(C1)C2 [Compound 293, 4-{2-[(2,2-difluoro-2H-1,3-benzodioxol-5-yl)oxy]acetamido}-N-[5-(trifluoromethoxy)pyridin-2-yl]bicyclo[2.1.1]hexane-1-carboxamide] as the compound, how does the EC50 read?
**A.** The EC50 was 250 to 500 nM.

**Q.** O=C(COc1ccc(Cl)c(F)c1)NC12CC(C(=O)Nc3ccncc3)(C1)C2 [Compound 301, 3-[2-(4-chloro-3-fluorophenoxy)acetamido]-N-(pyridin-4-yl)bicyclo[1.1.1]pentane-1-carboxamide] was tested. Which EC50 did it give?
**A.** The EC50 was under 250 nM.

**Q.** For O=C(COc1ccc(Cl)c(F)c1)NC12CCC(C(=O)N(CCO)Cc3ccc(Cl)c(F)c3)(CC1)CC2 [Compound 344, 4-[2-(4-chloro-3-fluorophenoxy)acetamido]-N-[(4-chloro-3-fluorophenyl)methyl]-N-(2-hydroxyethyl)bicyclo[2.2.2]octane-1-carboxamide], which EC50 is on record?
**A.** Its EC50 is 1000 to 2000 nM.

From patent US20240173307A1, “MODULATORS OF THE INTEGRATED STRESS PATHWAY” (Calico Life Sciences LLC, priority 2017, published 2024)
